Test system: visceromotor response to colorectal distension
Assay: Visceromotor response to isobaric colorectal distension in rats
Type: in vivo, rats (Sprague Dawley)
From the text: In this study the effect of acute administration of a compound on the visceromotor response to isobaric colorectal distension in rats is investigated (Ritchie J. Pain from distension of the pelvic colon by inflating a balloon in the irritable bowel syndrome. Gut 1973; 6: 105-112. Ness T J, Gebhart G F. Colorectal distension as a noxious visceral stimulus: physiological and pharmacological characterization of pseudoeffective reflexes in the rat. Brain Research 1988; 450: 153-169).
Colorectal distension (CRD) is performed in all rats (Sprague Dawley) using a paradigm of 12 consecutive distensions (or pulses) at 80 mmHg for 30 seconds each with 4.5 minute intervals (12×80 mmHg). The visceromotor respbnse is determined by quantifying phasic changes in the balloon pressure, which is processed by specially designed computer software. The compound is dissolved in saline and administered at the doses of 1, 3 and 10 μmol/kg. The compound is given intravenously in a volume of 1 mL/kg between the third and fourth distension.

Structure (SMILES): COCc1cc(C#N)cc(-c2nc(-c3ccc(F)cn3)no2)c1 [3-[3-(5-Fluoro-pyridin-2-yl)-[1,2,4]oxadiazol-5-yl]-5-methoxymethyl-benzonitrile]
- effect on visceromotor response (VMR) to colorectal distension (1 μmol/kg i.v.): transient inhibitory effect

Structure (SMILES): Cc1cccc(C#Cc2ccccc2)n1 [MPEP, 2-methyl-6-(phenylethynyl)-pyridine]
- effect on visceromotor response (VMR) to colorectal distension (1 μmol/kg i.v.): No effect
- effect on visceromotor response (VMR) to colorectal distension (3 μmol/kg i.v.): modest effect during a few distensions only
- effect on visceromotor response (VMR) to colorectal distension (10 μmol/kg i.v.): decreased the visceromotor response (VMR)
- average visceromotor response (VMR) during colorectal distension, relative to vehicle treated (100±19) (10 μmol/kg i.v., CRD 12×80 mmHg, mean±SEM, n=8): 46±11%

Reference: patent US20070203163A1, “Novel Treatment Of Irritable Bowel Syndrome 1” (priority 2003, published 2007)
